Results published in the NIST ThermoML archive (doi:10.1021/acs.jced.7b00176).

Assay: xn = mol fraction of the nth substance listed
Details: Liquid, Vibrating tube method

COCCOCCOC [2,5,8-trioxanonane] + CCCCO
Details | mass density [kg/m3]
283.55 K, 100000 kPa, x2 = 0.5469 | 947.45
283.56 K, 40000 kPa, x2 = 0.5469 | 918.49
283.56 K, 60000 kPa, x2 = 0.5469 | 928.98
283.56 K, 80000 kPa, x2 = 0.5469 | 938.59
283.58 K, 5000 kPa, x2 = 0.5469 | 897.03
283.58 K, 10000 kPa, x2 = 0.5469 | 900.4
283.58 K, 20000 kPa, x2 = 0.5469 | 906.81
283.58 K, 30000 kPa, x2 = 0.5469 | 912.81
283.59 K, 100 kPa, x2 = 0.5469 | 893.58
283.59 K, 1000 kPa, x2 = 0.5469 | 894.22
283.62 K, 100 kPa, x2 = 0.7308 | 866.59
283.62 K, 1000 kPa, x2 = 0.7308 | 867.24
283.62 K, 5000 kPa, x2 = 0.7308 | 870.06
283.62 K, 10000 kPa, x2 = 0.7308 | 873.45
283.62 K, 20000 kPa, x2 = 0.7308 | 879.83
283.62 K, 30000 kPa, x2 = 0.7308 | 885.83
283.62 K, 40000 kPa, x2 = 0.7308 | 891.47
283.62 K, 60000 kPa, x2 = 0.7308 | 901.94
283.62 K, 80000 kPa, x2 = 0.7308 | 911.46
283.62 K, 100000 kPa, x2 = 0.7308 | 920.22
283.65 K, 100 kPa, x2 = 0.3116 | 922.56
283.65 K, 5000 kPa, x2 = 0.3116 | 926
283.65 K, 20000 kPa, x2 = 0.3116 | 935.72
283.65 K, 30000 kPa, x2 = 0.3116 | 941.81
283.65 K, 40000 kPa, x2 = 0.3116 | 947.48
283.65 K, 60000 kPa, x2 = 0.3116 | 958.06
283.65 K, 80000 kPa, x2 = 0.3116 | 967.62
283.65 K, 100000 kPa, x2 = 0.3116 | 976.51
283.66 K, 1000 kPa, x2 = 0.3116 | 923.21
283.66 K, 10000 kPa, x2 = 0.3116 | 929.34
283.66 K, 20000 kPa, x2 = 0.8787 | 855.19
283.66 K, 30000 kPa, x2 = 0.8787 | 861.18
283.66 K, 40000 kPa, x2 = 0.8787 | 866.81
283.66 K, 60000 kPa, x2 = 0.8787 | 877.23
283.66 K, 80000 kPa, x2 = 0.8787 | 886.62
283.66 K, 100000 kPa, x2 = 0.8787 | 895.34
283.67 K, 100 kPa, x2 = 0.8787 | 841.93
283.67 K, 1000 kPa, x2 = 0.8787 | 842.59
283.67 K, 5000 kPa, x2 = 0.8787 | 845.4
283.67 K, 10000 kPa, x2 = 0.8787 | 848.78
283.67 K, 40000 kPa, x2 = 0 | 978.49
283.67 K, 60000 kPa, x2 = 0 | 989.12
283.67 K, 80000 kPa, x2 = 0 | 998.75
283.67 K, 100000 kPa, x2 = 0 | 1007.71
283.68 K, 10000 kPa, x2 = 0 | 960.29
283.68 K, 20000 kPa, x2 = 0 | 966.68
283.68 K, 30000 kPa, x2 = 0 | 972.8
283.69 K, 100 kPa, x2 = 0 | 953.48
283.69 K, 1000 kPa, x2 = 0 | 954.15
283.69 K, 5000 kPa, x2 = 0 | 956.94
303.46 K, 80000 kPa, x2 = 0.8787 | 874
303.46 K, 100000 kPa, x2 = 0.8787 | 883.23
303.47 K, 100 kPa, x2 = 0 | 933.69
303.47 K, 1000 kPa, x2 = 0 | 934.43
303.47 K, 30000 kPa, x2 = 0.8787 | 846.7
303.47 K, 60000 kPa, x2 = 0.8787 | 863.93
303.48 K, 5000 kPa, x2 = 0 | 937.55
303.48 K, 10000 kPa, x2 = 0 | 941.31
303.48 K, 10000 kPa, x2 = 0.8787 | 833.12
303.48 K, 20000 kPa, x2 = 0.8787 | 840.14
303.48 K, 40000 kPa, x2 = 0.8787 | 852.78
303.49 K, 100 kPa, x2 = 0.8787 | 825.51
303.49 K, 5000 kPa, x2 = 0.8787 | 829.38
303.49 K, 20000 kPa, x2 = 0 | 948.42
303.49 K, 30000 kPa, x2 = 0 | 955.17
303.49 K, 40000 kPa, x2 = 0 | 961.41
303.49 K, 60000 kPa, x2 = 0 | 973.02
303.5 K, 1000 kPa, x2 = 0.7308 | 850.15
303.5 K, 1000 kPa, x2 = 0.8787 | 826.23
303.5 K, 5000 kPa, x2 = 0.7308 | 853.29
303.5 K, 10000 kPa, x2 = 0.7308 | 857.01
303.5 K, 20000 kPa, x2 = 0.7308 | 864.06
303.5 K, 30000 kPa, x2 = 0.7308 | 870.65
303.5 K, 40000 kPa, x2 = 0.5469 | 902.93
303.5 K, 40000 kPa, x2 = 0.7308 | 876.8
303.5 K, 60000 kPa, x2 = 0.5469 | 914.29
303.5 K, 60000 kPa, x2 = 0.7308 | 888.07
303.5 K, 79990 kPa, x2 = 0.7308 | 898.18
303.5 K, 80000 kPa, x2 = 0 | 983.33
303.5 K, 80000 kPa, x2 = 0.5469 | 924.52
303.5 K, 100000 kPa, x2 = 0 | 992.97
303.5 K, 100000 kPa, x2 = 0.5469 | 933.93
303.5 K, 100000 kPa, x2 = 0.7308 | 907.47
303.51 K, 100 kPa, x2 = 0.5469 | 875.36
303.51 K, 100 kPa, x2 = 0.7308 | 849.42
303.51 K, 1000 kPa, x2 = 0.5469 | 876.1
303.51 K, 10000 kPa, x2 = 0.5469 | 883.02
303.51 K, 20000 kPa, x2 = 0.5469 | 890.1
303.51 K, 30000 kPa, x2 = 0.5469 | 896.73
303.52 K, 5000 kPa, x2 = 0.5469 | 879.25
303.55 K, 100000 kPa, x2 = 0.3116 | 962.26
303.56 K, 10000 kPa, x2 = 0.3116 | 911.05
303.56 K, 20000 kPa, x2 = 0.3116 | 918.17
303.56 K, 30000 kPa, x2 = 0.3116 | 924.8
303.56 K, 40000 kPa, x2 = 0.3116 | 931.1
303.56 K, 60000 kPa, x2 = 0.3116 | 942.54
303.56 K, 80000 kPa, x2 = 0.3116 | 952.82
303.57 K, 100 kPa, x2 = 0.3116 | 903.4
303.57 K, 1000 kPa, x2 = 0.3116 | 904.14
303.57 K, 5000 kPa, x2 = 0.3116 | 907.29
322.62 K, 100 kPa, x2 = 0 | 914.41
322.62 K, 1000 kPa, x2 = 0 | 915.3
322.62 K, 5000 kPa, x2 = 0 | 918.77
322.62 K, 10000 kPa, x2 = 0 | 923.02
322.62 K, 20000 kPa, x2 = 0 | 930.99
322.62 K, 30000 kPa, x2 = 0 | 938.31
322.62 K, 40000 kPa, x2 = 0 | 945.16
322.62 K, 60000 kPa, x2 = 0 | 957.74
322.62 K, 80000 kPa, x2 = 0 | 968.98
322.62 K, 100000 kPa, x2 = 0 | 979.2
323.22 K, 100 kPa, x2 = 0.5469 | 857.29
323.22 K, 1000 kPa, x2 = 0.5469 | 858.13
323.22 K, 5000 kPa, x2 = 0.5469 | 861.6
323.23 K, 10000 kPa, x2 = 0.5469 | 865.79
323.23 K, 20000 kPa, x2 = 0.5469 | 873.63
323.23 K, 30000 kPa, x2 = 0.5469 | 880.92
323.23 K, 40000 kPa, x2 = 0.5469 | 887.67
323.23 K, 60000 kPa, x2 = 0.5469 | 899.96
323.24 K, 80000 kPa, x2 = 0.5469 | 911.05
323.24 K, 100000 kPa, x2 = 0.5469 | 920.96
323.26 K, 100 kPa, x2 = 0.7308 | 831.9
323.26 K, 1000 kPa, x2 = 0.7308 | 832.7
323.26 K, 5000 kPa, x2 = 0.7308 | 836.19
323.26 K, 10000 kPa, x2 = 0.7308 | 840.37
323.26 K, 20000 kPa, x2 = 0.7308 | 848.19
